Results from US10786471B2, “Methods and products related to glutaminase inhibitors” (Massachusetts Institute of Technology, priority 2017, dated 2020).
Entries after “also recorded” stand apart in the source; their conditions may differ. Read-outs that look alike come from different tables or passages of the source.

Experiments:
breast cancer cell lines = settings: RPMI, cited from earlier work
MDA-MB-468 = test: Proliferation rate of MDA-MB-468 cells overexpressing SLC7A11 with 1 μM CB-839; type: cell-based; settings: SLC7A11 overexpression, RPMI vs RPMI (10 μM cystine)
Method: (§1) Proliferation rates for MDA-MB-468 and AU565 cell lines overexpressing SLC7A11 or not (from FIG. 4G) in RPMI or RPMI (10 μM cystine) with vehicle (DMSO) or 1 μM CB-839 are shown. The values represent the mean and the error bars represent ±SEM.
(§2) Cell lines growing in log phase in RPMI medium were trypsinized, counted and plated into 6 well dishes in 2 mL of RPMI medium and incubated overnight. Initial seeding density was 20,000 cells/well for A549 cells, or 50,000 cells for MCF7, AU565 and MDA-MB-468 cells. The next day, a plate of cells was trypsinized and counted to provide a number of cells at the start of the experiment. Cells were then washed twice with 2 mL of PBS, and […] of the indicated media premixed with indicated compounds or vehicles was added. Cells were then counted 4 days after adding the indicated medias. Proliferation rate was determined using the following formula:
(§3) Proliferation rate in doublings/day=[Log 2(Final Day 4 cell count/Initial Day 0 cell count)]/4 days. Cells were counted using a Cellometer Auto t$ Plus Cell Counter (Nexcelom Bioscience).

AU565 = test: Proliferation rate of AU565 cells overexpressing SLC7A11 with 1 μM CB-839; type: cell-based; settings: SLC7A11 overexpression, RPMI vs RPMI (10 μM cystine)
Method: as §1, §2, §3

A549 cells [1] = test: 13C5-glutamine tracing of glutamine anaplerosis in cultured A549 cells; type: cell-based, human; settings: A549 cells cultured 8 h; high cystine (208 μM added to adult bovine serum)
From the text: Each medium included ^13C5-glutamine added to ˜33% enrichment (n=3). […] For all parts of the figure, the values represent the mean and the error bars represent ±SEM.

A549 cells [2] = test: Proliferation rate of A549 cells with vehicle or 1 μM CB-839 in different media; type: cell-based, human; settings: cystine at RPMI/DMEM levels
Method: Each medium included ^13C5-glutamine added to ˜33% enrichment (n=3). […] For all parts of the figure, the values represent the mean and the error bars represent ±SEM. […] In FIG. 8A, A549 cells were cultured in adult bovine serum with DMEM nutrient levels, adult bovine serum with DMEM amino acid levels, and adult bovine serum with DMEM amino acid levels but without supplementation of the amino acids indicated in each column. For each medium, the proliferation rate for cells grown with vehicle (DMSO) or 1 μM CB-839 is shown (n=3). […] Cell lines growing in log phase in RPMI medium were trypsinized, counted and plated into 6 well dishes in 2 mL of RPMI medium and incubated overnight. […] The next day, a plate of cells was trypsinized and counted to provide a number of cells at the start of the experiment. […] Cells were then counted 4 days after adding the indicated medias. Proliferation rate was determined using the following formula: Proliferation rate in doublings/day=[Log 2(Final Day 4 cell count/Initial Day 0 cell count)]/4 days. Cells were counted using a Cellometer Auto t$ Plus Cell Counter (Nexcelom Bioscience).

A549 tumors = test: Tumor glutamine anaplerosis in A549 tumor-bearing mice after oral cystine; type: in vivo; settings: oral cystine before 13C5-glutamine bolus
Method: In FIG. 5A, nu/nu mice were treated orally with 2.4 g/kg cystine and plasma from these animals was serially collected at the indicated time points. Cystine concentration of the plasma was determined by GC-MS. In FIG. 5B, A549 tumor-bearing mice were treated (n=4) or not (n=3) with oral cystine prior to bolus ^13C5-glutamine injection prior to harvesting the plasma and tumors. […] In FIG. 5C, intratumoral glutamate (m+5) and α-ketoglutarate (m+5) labeling from FIG. 5B were normalized to tumor glutamine (m+5).

Row | Structure (SMILES) | IC50 (breast cancer cell lines; 'resistant' breast cancer cell lines, maximal CB-839 tested 1 μM) | IC50 (breast cancer cell lines; sensitive breast cancer cell lines) | sensitivity of proliferation to CB-839 (MDA-MB-468) | sensitivity of proliferation to CB-839 (AU565) | effect on glutamine anaplerosis (fractional labeling from 13C5-glutamine) (A549 cells [1]) | effect of cystine on CB-839 inhibition of proliferation (A549 cells [2]) | effect on tumor glutamine anaplerosis in vivo (A549 tumors)
1 | O=C(Cc1cccc(OC(F)(F)F)c1)Nc1ccc(CCCCc2nnc(NC(=O)Cc3ccccn3)s2)nn1 [CB-839] | > 1 µM | < 1 µM | cystine-induced CB-839 sensitivity | cystine-induced CB-839 sensitivity |  |  | 
2 | N[C@@H](CSSC[C@H](N)C(=O)O)C(=O)O [cystine] |  |  |  |  | enhance glutamine anaplerosis | potentiate the effects of the glutaminase inhibitor CB-839; also recorded: potentiates the glutaminase inhibitor CB-839 | increases tumor glutamine anaplerosis in vivo
